From patent US11208405B2, “Pyrrole derivatives as PLK1 inhibitors” (SENTINEL ONCOLOGY LIMITED, priority 2017, dated 2021) come the findings set out here.

Where a name gives a salt, the structure may show the parent alone. Read-outs that look alike come from different tables or passages of the source.

Data set [1] concerns the target T1, CAMKK2 (Homo sapiens, UniProt Q96RR4).
T1 construct: purchased DiscoverX
The experiment in a line: Kinase selectivity assay (DiscoverX KinomeScreen), CAMKK2. The format is binding. To be noted: CAMKK2, 5 μM; read-out: % Control. As to the method: (§1) The compound of Example 33 was tested for off-target activity against a panel of fifty five kinases bearing functional or structural similarity to PLK1 at a concentration of 5 μM using the DiscoverX KinomeScreen assay.

In data set [2] the test system is HeLa cells. Put plainly: Arresting cells in mitosis (Mitotic Index, phosphorylated Histone H3 immunofluorescence). The format is cell-based. To be noted: Homo sapiens, HeLa; separate experiment; read-out: EC50 in the mitotic arrest assay. In short, it runs like this: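 HeLa cells exposed 24 h to 2-fold serial compound dilutions, in triplicate, then formaldehyde-fixed and immunostained for phospho-histone H3 and MPM2 with Hoechst counterstain. High-content imaging gave the mitotic index (% pH3-positive cells); EC50 fitted from MI versus concentration.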

Data set [3] addresses T2, WEE1 (Homo sapiens, UniProt P30291).
T2 construct: purchased DiscoverX
The experiment in a line: Kinase selectivity assay (DiscoverX KinomeScreen), WEE1. It is filed as binding. To be noted: WEE1, 5 μM; read-out: % Control. As to the method:
as §1

The subject of data set [4] is glioblastoma cell line 1240170. The experiment in a line: Glioblastoma cancer cell viability, cell line 1240170. It is filed as cell-based. Here is the method: (§2) Assay to Measure the Effects of Compounds of the Invention on Glioblastoma Cancer Cell Viability
(§3) The compound of Example 33 was tested for inhibitory activity against the glioblastoma cell lines in Table 7 below.

Data set [5] is described as follows: Determination of brain exposure following oral dosing in mice. It is filed as in vivo, male CD-1 mice. The note with it: male, CD-1, mouse, 10 mg/Kg PO. As to the method:
Determination of Brain Exposure Following Oral Dosing in Mice An experiment was carried out on the compound of Example 33 to determine the extent of its brain penetration following oral dosing in mice. The following protocol was used. 15 male CD-1 mice (n=3/time point) were dosed perorally with the compound of Example 33 (10 mg/kg; dose concentration 1 mg/ml; dose volume 10 mL/kg). […] Animals were housed in pre-assigned housing cages until sampling. Appropriate samples were taken at […] time points and stored immediately at −20° C. Homogenisation and protein precipitation with acetonitrile was carried out for plasma and brain. Analysis was carried out with tandem mass spectrometry using electrospray ionisation. The results of the experiment are shown in FIG. 2 and in Table 10 below.

Data set [6] relates to glioblastoma cell line 949094. Put plainly: Glioblastoma cancer cell viability, cell line 949094. It is filed as cell-based. Here is the method: as §2, §3
For data set [7], the system named is glioblastoma cell line 946370. Put plainly: Glioblastoma cancer cell viability, cell line 946370. The format is cell-based. Here is the method: as §2, §3
The test system of data set [8] is glioblastoma cell line 907271. The experiment in a line: Glioblastoma cancer cell viability, cell line 907271. It is filed as cell-based. Here is the method:
as §2, §3

The test system of data set [9] is glioblastoma cell line 687586. The experiment in a line: Glioblastoma cancer cell viability, cell line 687586. It is filed as cell-based. Here is the method: as §2, §3
For data set [10], the target named is T3, ULK3 (Homo sapiens, UniProt Q6PHR2).
T3 construct: purchased DiscoverX
The experiment in a line: Kinase selectivity assay (DiscoverX KinomeScreen), ULK3. The format is binding. To be noted: ULK3, 5 μM; read-out: % Control. Here is the method:
as §1

In data set [11] the target is T4, SgK110 (Homo sapiens, UniProt P0C264).
T4 construct: purchased DiscoverX
The experiment in a line: Kinase selectivity assay (DiscoverX KinomeScreen), SgK110. The note with it: SgK110, 5 μM; read-out: % Control. It is filed as binding. Here is the method: as §1

The test system of data set [12] is KRAS G12V HeLa cell line. Put plainly: Wild-type versus KRAS HeLa cell viability: oncogenic KrasG12V transgene. It is filed as cell-based. To be noted: Homo sapiens; HeLa cells expressing KRAS G12V, 72 hours. As to the method: Assay to Measure the Effects of Compounds of the Invention on Wild-Type Versus KRAS HeLa Cell Viability
Identifying synthetic lethal interactions between targeted small molecule therapies and characterised oncogenic mutations is a goal of modern oncology drug discovery efforts. To this end, PLK1-PBD inhibitors were tested on HeLa cells engineered to inducibly express wild-type or oncogenic KrasG12V transgenes using the FLP-in/T-Rex system (Invitrogen). Cells were plated, and then treated with or without Doxycycline to induce transgene expression, and then treated with serially-diluted PBD inhibitors. After 72 hours of incubation, cell viability was assessed using the Cell Titre Blue reagent (Promega) and a BMG Pherastar plate reader. The effect of PBD inhibition on cell viability with either wild-type or oncogenic G12V KRAS was assessed using the graphing/curve-fitting packages in GraphPad Prism.

Data set [13] addresses T5, SBK1 (Homo sapiens, UniProt Q52WX2).
T5 construct: purchased DiscoverX
Put plainly: Kinase selectivity assay (DiscoverX KinomeScreen), SBK1. The format is binding. To be noted: SBK1, 5 μM; read-out: % Control. Here is the method:
as §1

One may read the EC50 as the concentration needed to bring the measured effect to its halfway point. What is called IC50 is the concentration that gives 50% inhibition. Low values mean higher potency, high ones lower potency. Usually Tmax stands for the time at which the peak concentration occurs. A word on the GI50: it is the concentration giving 50% growth inhibition.

T3 sequence (Q6PHR2 whole entry): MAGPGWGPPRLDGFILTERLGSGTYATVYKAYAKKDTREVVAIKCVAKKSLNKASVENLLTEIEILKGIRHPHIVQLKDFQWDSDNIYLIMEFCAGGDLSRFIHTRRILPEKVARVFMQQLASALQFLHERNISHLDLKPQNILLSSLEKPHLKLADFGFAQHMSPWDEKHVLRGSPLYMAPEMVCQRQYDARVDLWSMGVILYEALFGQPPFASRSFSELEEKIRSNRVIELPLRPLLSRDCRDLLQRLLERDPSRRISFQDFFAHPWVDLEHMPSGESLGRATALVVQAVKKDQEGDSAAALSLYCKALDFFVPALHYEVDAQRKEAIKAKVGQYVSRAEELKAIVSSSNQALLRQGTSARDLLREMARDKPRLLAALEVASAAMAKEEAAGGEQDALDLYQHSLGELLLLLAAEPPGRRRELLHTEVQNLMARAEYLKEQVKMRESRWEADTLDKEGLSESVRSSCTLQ
T4 sequence (P0C264 whole entry): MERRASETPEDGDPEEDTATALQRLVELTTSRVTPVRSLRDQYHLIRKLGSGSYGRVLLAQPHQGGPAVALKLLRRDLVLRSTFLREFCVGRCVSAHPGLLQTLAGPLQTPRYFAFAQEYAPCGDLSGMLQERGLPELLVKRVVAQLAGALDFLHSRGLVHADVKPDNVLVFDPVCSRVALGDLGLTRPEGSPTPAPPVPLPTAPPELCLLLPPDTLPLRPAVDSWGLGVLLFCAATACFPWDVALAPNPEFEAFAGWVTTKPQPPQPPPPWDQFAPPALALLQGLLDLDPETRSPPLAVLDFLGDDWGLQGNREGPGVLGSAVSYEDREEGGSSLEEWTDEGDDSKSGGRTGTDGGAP
T2 sequence (P30291 whole entry): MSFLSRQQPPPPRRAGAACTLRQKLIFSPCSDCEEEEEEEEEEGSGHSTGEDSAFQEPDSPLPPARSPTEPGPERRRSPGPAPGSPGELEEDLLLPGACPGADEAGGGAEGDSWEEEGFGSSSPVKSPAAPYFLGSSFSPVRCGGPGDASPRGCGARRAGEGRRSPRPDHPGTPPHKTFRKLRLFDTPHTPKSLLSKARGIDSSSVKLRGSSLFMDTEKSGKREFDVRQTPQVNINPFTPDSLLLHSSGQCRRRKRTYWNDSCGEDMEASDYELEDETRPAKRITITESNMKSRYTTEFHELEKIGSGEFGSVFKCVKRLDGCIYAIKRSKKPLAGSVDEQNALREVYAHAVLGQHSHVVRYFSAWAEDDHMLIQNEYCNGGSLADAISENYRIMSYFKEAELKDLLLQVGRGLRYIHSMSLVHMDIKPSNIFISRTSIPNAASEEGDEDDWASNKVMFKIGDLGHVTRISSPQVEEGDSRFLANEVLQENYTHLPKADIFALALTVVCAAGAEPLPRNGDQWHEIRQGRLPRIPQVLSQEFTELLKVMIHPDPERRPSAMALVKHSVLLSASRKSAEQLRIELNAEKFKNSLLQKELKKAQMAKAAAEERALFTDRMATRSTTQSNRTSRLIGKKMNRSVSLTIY
T1 sequence (Q96RR4 whole entry): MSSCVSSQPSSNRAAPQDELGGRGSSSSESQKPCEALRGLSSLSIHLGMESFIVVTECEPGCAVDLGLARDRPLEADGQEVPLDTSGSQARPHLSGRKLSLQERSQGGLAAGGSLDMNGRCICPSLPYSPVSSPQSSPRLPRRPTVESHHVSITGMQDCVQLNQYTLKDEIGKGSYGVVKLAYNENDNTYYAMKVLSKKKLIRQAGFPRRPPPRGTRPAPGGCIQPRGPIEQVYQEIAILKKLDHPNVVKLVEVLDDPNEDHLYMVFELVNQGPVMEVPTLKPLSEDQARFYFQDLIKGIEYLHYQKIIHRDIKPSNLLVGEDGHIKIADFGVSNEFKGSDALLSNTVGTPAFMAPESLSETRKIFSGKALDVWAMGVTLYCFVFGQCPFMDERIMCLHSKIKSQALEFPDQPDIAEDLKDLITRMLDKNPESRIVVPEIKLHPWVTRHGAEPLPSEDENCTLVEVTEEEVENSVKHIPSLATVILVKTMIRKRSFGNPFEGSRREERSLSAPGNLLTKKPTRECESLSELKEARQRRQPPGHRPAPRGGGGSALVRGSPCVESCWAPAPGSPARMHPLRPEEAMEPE
T5 sequence (Q52WX2 whole entry): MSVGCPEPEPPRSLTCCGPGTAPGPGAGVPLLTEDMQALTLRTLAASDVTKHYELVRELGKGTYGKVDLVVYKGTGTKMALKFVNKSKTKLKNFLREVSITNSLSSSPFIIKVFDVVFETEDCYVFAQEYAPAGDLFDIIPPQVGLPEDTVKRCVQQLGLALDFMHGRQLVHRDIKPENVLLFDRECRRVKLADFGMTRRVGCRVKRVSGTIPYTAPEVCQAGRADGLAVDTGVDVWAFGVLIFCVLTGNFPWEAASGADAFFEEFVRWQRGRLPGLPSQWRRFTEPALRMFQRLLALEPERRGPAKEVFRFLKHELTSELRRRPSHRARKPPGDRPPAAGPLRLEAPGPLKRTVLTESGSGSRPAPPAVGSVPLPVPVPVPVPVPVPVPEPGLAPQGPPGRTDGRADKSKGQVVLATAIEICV

`CN(C)CCNC(=O)c1ccc(-c2ccc(-c3ccc(Cl)cc3)n2-c2ccccc2C(F)(F)F)cc1` [Example 33, 4-[5-(4-chlorophenyl)-1-[2-(trifluoromethyl)phenyl]pyrrol-2-yl]-N-[2-(dimethylamino)ethyl]benzamide Hydrochloride]: the remaining activity at 5 µM in [1] was 97%; in [3], 98%; in [10], 88%; in data set [11], 100%; in data set [13], 61%. Also, in data set [2], the EC50 turned out to be 61 ± 10 nM. For the same compound, the half-maximal inhibitory concentration (IC50) in [4] worked out at 363 nM; in data set [6], 709 nM; in data set [7], 1670 nM; in data set [8], 2060 nM; in data set [9] it was 489 nM. For the same compound, the AUC(0-t) is 31900 ng·h/mL in data set [5] (brain, read-out: AUClast (Brain)) and 5030 ng·h/mL in data set [5] (plasma, read-out: AUClast (Plasma)). Further, the time of peak concentration (Tmax) in data set [5] (brain, read-out: Tmax (Brain)) is 24 h; in data set [5] (plasma, read-out: Tmax (Plasma)), 8 h. This compound showed a GI50 in [12] of 10 nM.
